Results on 21 molecules are retold here after patent US10287255B2, “Compounds as histone deacetylase 6 inhibitors and pharmaceutical compositions comprising the same” (CHONG KUN DANG PHARMACEUTICAL CORP., priority 2014, dated 2019).

A value given as a limit tells only on which side of the number the result lay.

One experiment addresses T1, human recombinant HDAC1 (Homo sapiens, UniProt Q13547).
T1 construct: purchased Enzo Life Science BML-SE456
Briefly: HDAC1 enzyme activity inhibition assay (in vitro, fluorimetric). In kind it is biochemical. The settings on record: human recombinant HDAC1, fluorimetric kit, 30° C. 60 minutes. Put shortly: (§1)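 IC50 values derive from fluorescence (Ex 360, Em 460) after developer treatment (30 min) of reactions of recombinant human HDAC1 or HDAC6 with 10 μM Fluor de Lys-SIRT1 substrate (60 min, 30 °C). Compounds were serially diluted 5-fold; 0.3 μg enzyme was used for HDAC1, with HDAC6 tested identically.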

A further experiment addresses T2, human recombinant HDAC6 (Homo sapiens, UniProt Q9UBN7).
T2 construct: purchased Calbiochem 382180
T2 sequence (Q9UBN7 1-1215): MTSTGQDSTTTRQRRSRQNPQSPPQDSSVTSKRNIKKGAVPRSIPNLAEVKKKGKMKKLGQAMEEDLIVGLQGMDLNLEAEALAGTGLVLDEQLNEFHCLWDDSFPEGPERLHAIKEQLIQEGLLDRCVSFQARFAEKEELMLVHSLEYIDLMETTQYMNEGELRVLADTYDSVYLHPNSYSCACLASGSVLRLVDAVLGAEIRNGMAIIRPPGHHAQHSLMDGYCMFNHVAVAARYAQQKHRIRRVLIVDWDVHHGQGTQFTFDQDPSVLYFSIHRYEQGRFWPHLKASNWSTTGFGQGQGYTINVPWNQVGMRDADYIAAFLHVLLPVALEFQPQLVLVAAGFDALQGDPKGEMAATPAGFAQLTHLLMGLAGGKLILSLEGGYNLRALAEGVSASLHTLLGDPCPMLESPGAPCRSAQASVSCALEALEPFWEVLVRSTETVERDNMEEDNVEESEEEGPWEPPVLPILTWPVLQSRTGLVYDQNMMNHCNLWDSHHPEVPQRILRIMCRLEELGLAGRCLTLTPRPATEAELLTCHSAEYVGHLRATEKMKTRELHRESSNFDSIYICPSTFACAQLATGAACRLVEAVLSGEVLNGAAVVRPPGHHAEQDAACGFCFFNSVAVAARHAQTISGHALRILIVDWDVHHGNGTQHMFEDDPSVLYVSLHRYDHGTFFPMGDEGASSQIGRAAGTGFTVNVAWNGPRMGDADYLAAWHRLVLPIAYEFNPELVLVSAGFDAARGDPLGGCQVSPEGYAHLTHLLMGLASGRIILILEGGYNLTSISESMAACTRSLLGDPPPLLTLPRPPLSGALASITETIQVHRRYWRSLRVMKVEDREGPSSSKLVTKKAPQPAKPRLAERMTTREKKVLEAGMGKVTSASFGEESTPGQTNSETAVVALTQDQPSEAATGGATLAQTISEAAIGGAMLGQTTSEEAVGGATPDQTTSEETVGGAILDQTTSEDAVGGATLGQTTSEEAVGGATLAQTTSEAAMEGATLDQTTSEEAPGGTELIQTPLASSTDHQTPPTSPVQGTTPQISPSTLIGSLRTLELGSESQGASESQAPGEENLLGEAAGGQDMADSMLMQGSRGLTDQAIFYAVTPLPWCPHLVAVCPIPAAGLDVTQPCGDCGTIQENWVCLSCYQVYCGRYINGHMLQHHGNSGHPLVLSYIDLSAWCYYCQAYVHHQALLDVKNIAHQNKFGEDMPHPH
Briefly: HDAC6 enzyme activity inhibition assay (in vitro, fluorimetric). In kind it is biochemical. Conditions: for HDAC6 selectivity (fold): HDAC6 selectivity over HDAC1; for IC50: human recombinant HDAC6, fluorimetric kit, same protocol as HDAC1. Put shortly:
as §1

T1 sequence (Q13547 whole entry): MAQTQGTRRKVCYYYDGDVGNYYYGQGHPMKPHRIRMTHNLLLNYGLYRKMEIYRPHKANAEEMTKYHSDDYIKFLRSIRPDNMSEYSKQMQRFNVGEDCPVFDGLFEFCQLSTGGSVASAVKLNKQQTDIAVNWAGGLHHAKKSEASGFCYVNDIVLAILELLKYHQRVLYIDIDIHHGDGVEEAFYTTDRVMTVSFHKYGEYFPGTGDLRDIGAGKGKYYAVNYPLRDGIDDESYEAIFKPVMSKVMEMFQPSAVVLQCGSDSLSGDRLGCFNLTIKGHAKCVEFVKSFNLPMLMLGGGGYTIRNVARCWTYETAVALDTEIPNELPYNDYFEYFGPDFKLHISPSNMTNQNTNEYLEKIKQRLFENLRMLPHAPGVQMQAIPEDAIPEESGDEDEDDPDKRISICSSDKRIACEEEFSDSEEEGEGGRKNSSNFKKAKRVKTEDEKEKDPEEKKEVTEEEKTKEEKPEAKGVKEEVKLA

As a reminder, the IC50 is the concentration that gives 50% inhibition. On to `C[C@@H]1CN(CCc2ccccc2)C[C@H](C)N1Cc1ccc(C(=O)NO)cc1` [Compound 183, 4-(((2S,6R)-2,6-dimethyl-4-phenethylpiperazin-1-yl)methyl)-N-hydroxybenzamide], for which the half-inhibitory concentration (IC50) on human recombinant HDAC1 is more than 10000 nM. Further, on human recombinant HDAC6, the “HDAC6 selectivity (fold)” value is listed as more than 20 fold and the IC50 is 500 nM.

For `C[C@@H]1CN(C(=O)c2cccs2)C[C@H](C)N1Cc1ccc(C(=O)NO)cc1` [Compound 114, 4-(((2S,6R)-2,6-dimethyl-4-(thiophene-2-carbonyl)piperazin-1-yl)methyl)-N-hydroxybenzamide], the IC50 at human recombinant HDAC1 was 2400 nM. Besides, on human recombinant HDAC6, the “HDAC6 selectivity (fold)” value was determined as 13 fold and the half-maximal inhibitory concentration (IC50) was 185 nM.

On to `Cc1nccn1-c1ccccc1CN1C[C@@H](C)N(Cc2ccc(C(=O)NO)cc2)[C@@H](C)C1` [Compound 305, 4-(((2S,6R)-2,6-dimethyl-4-(2-(2-methyl-1H-imidazol-1-yl)benzyl)piperazin-1-yl)methyl)-N-hydroxybenzamide], for which the IC50 at human recombinant HDAC1 is 5600 nM; on human recombinant HDAC6 it was 32 nM. The “HDAC6 selectivity (fold)” value on human recombinant HDAC6 was determined as 174 fold.

In the case of `C[C@@H]1CN(Cc2ccc(C(=O)NO)cc2)C[C@H](C)N1C(=O)c1cc[nH]n1` [Compound 403, 4-(((3R,5S)-3,5-dimethyl-4-(1H-pyrazole-3-carbonyl)piperazin-1-yl)methyl)-N-hydroxybenzamide], the IC50 on human recombinant HDAC1 turned out to be 3200 nM. Further, on human recombinant HDAC6, the “HDAC6 selectivity (fold)” value is on record as 53 fold and the IC50 amounted to 61 nM.

For the molecule `C[C@@H]1CN(Cc2ccc(C(=O)NO)cc2)C[C@H](C)N1C(=O)c1ccccc1` [Compound 083, 4-(((3R,5S)-4-benzoyl-3,5-dimethylpiperazin-1-yl)methyl)-N-hydroxybenzamide], the IC50 stood at 2000 nM on human recombinant HDAC1 and 10 nM at human recombinant HDAC6. Further, the “HDAC6 selectivity (fold)” value at human recombinant HDAC6 is 201 fold.

Regarding `COc1cccc(CNC(=O)N2C[C@@H](C)N(Cc3ccc(C(=O)NO)cc3)[C@@H](C)C2)c1` [Compound 230, (3R,5S)-4-(4-(hydroxycarbamoyl)benzyl)-N-(3-methoxybenzyl)-3,5-dimethylpiperazine-1-carboxamide], the half-inhibitory concentration (IC50) on human recombinant HDAC1 was 2400 nM. Besides, on human recombinant HDAC6, the “HDAC6 selectivity (fold)” value was found to be 3 fold and the IC50 was 687 nM.

Take `CC(=O)N1CCN(Cc2ccc(CN3[C@H](C)CN(Cc4ccc(C(=O)NO)cc4)C[C@@H]3C)cc2)CC1` [Compound 486, 4-(((3R,5S)-4-(4-((4-acetylpiperazin-1-yl)methyl)benzyl)-3,5-dimethylpiperazin-1-yl)methyl)-N-hydroxybenzamide]: on human recombinant HDAC1, the IC50 was more than 10000 nM. Further, on human recombinant HDAC6, the “HDAC6 selectivity (fold)” value is more than 79 fold and the IC50 was 126 nM.

Regarding `C[C@@H]1CN(S(=O)(=O)c2ccc(Cl)cc2)C[C@H](C)N1Cc1ccc(C(=O)NO)cc1` [Compound 109, 4-(((2S,6R)-4-((4-chlorophenyl)sulfonyl)-2,6-dimethylpiperazin-1-yl)methyl)-N-hydroxybenzamide], the IC50 on human recombinant HDAC1 stood at 5100 nM; at human recombinant HDAC6, 75 nM. In addition, the “HDAC6 selectivity (fold)” value at human recombinant HDAC6 amounted to 67 fold.

Turning to `C[C@@H]1CN(CC(C)(C)F)C[C@H](C)N1Cc1ccc(C(=O)NO)cc1` [Compound 193, 4-(((2S,6R)-4-(2-fluoro-2-methylpropyl)-2,6-dimethylpiperazin-1-yl)methyl)-N-hydroxybenzamide], on human recombinant HDAC1, the 50% inhibitory concentration (IC50) came out at 16300 nM. Further, at human recombinant HDAC6, the “HDAC6 selectivity (fold)” value is recorded as 60 fold and the concentration for half-maximal inhibition (IC50) is 271 nM.

`C[C@@H]1CN(Cc2ccc(C(=O)NO)cc2)C[C@H](C)N1C(=O)C(C)(C)C` [Compound 292, 4-(((3R,5S)-3,5-dimethyl-4-pivaloylpiperazin-1-yl)methyl)-N-hydroxybenzamide]: the half-maximal inhibitory concentration (IC50) at human recombinant HDAC1 was determined as 5600 nM. In addition, at human recombinant HDAC6, the “HDAC6 selectivity (fold)” value came to 76 fold and the concentration for half-maximal inhibition (IC50) stood at 74 nM.

Regarding `C[C@@H]1CN(Cc2ccc(-c3cccs3)cc2)C[C@H](C)N1Cc1ccc(C(=O)NO)cc1` [Compound 302, 4-(((2S,6R)-2,6-dimethyl-4-(4-(thiophen-2-yl)benzyl)piperazin-1-yl)methyl)-N-hydroxybenzamide], the IC50 on human recombinant HDAC1 was found to be 3600 nM. In addition, on human recombinant HDAC6, the “HDAC6 selectivity (fold)” value was 3 fold and the IC50 came out at 1130 nM.

`CC(=O)N1[C@H](C)CN(Cc2ccc(C(=O)NO)cc2)C[C@@H]1C` [Compound 082, 4-(((3R,5S)-4-acetyl-3,5-dimethylpiperazin-1-yl)methyl)-N-hydroxybenzamide]: the IC50 at human recombinant HDAC1 was determined as 12500 nM; at human recombinant HDAC6 it was 34 nM. Further, the “HDAC6 selectivity (fold)” value at human recombinant HDAC6 was found to be 369 fold.

Turning to `C[C@@H]1CN(Cc2ccc(C(=O)NO)cc2)C[C@H](C)N1Cc1ccc(CN2CCCC2)cc1` [Compound 466, 4-(((3R,5S)-3,5-dimethyl-4-(4-(pyrrolidin-1-ylmethyl)benzyl)piperazin-1-yl)methyl)-N-hydroxybenzamide], the IC50 on human recombinant HDAC1 amounted to 700 nM. Besides, at human recombinant HDAC6, the “HDAC6 selectivity (fold)” value was 35 fold and the concentration for half-maximal inhibition (IC50) was determined as 19 nM.

With `C[C@@H]1CN(Cc2c[nH]c3cc(C(=O)NO)ccc23)C[C@H](C)N1Cc1ccccc1` [Compound 520, 3-(((3R,5S)-4-benzyl-3,5-dimethylpiperazin-1-yl)methyl)-N-hydroxy-1H-indole-6-carboxamide], at human recombinant HDAC1, the IC50 is more than 10000 nM. In addition, on human recombinant HDAC6, the “HDAC6 selectivity (fold)” value is given as more than 11 fold and the IC50 amounted to 860 nM.

On to `C[C@@H]1CN(Cc2ccccc2)C[C@H](C)N1Cc1ccc(C(=O)NO)cn1` [Compound 195, 6-(((2S,6R)-4-benzyl-2,6-dimethylpiperazin-1-yl)methyl)-N-hydroxynicotinamide], for which the 50% inhibitory concentration (IC50) on human recombinant HDAC1 was 22400 nM. In addition, at human recombinant HDAC6, the “HDAC6 selectivity (fold)” value was found to be 55 fold and the IC50 is 410 nM.

For the molecule `C[C@@H]1CN(Cc2ccc(C(=O)NO)cc2)C[C@H](C)N1Cc1cccc(-n2cccc2)c1` [Compound 255, 4-(((3R,5S)-4-(3-(1H-pyrrol-1-yl)benzyl)-3,5-dimethylpiperazin-1-yl)methyl)-N-hydroxybenzamide], the figures for the IC50 at human recombinant HDAC1 and on human recombinant HDAC6 were 8500 nM and 24 nM, respectively. Also, the “HDAC6 selectivity (fold)” value on human recombinant HDAC6 is 354 fold.

`C[C@@H]1CN(Cc2ccc(C(=O)NO)cc2)C[C@@H](C)N1C(=O)c1ccco1` [Compound 249, 4-(((3R,5R)-4-(furan-2-carbonyl)-3,5-dimethylpiperazin-1-yl)methyl)-N-hydroxybenzamide]: the IC50 on human recombinant HDAC1 worked out at 15600 nM; at human recombinant HDAC6 it was 120 nM. The “HDAC6 selectivity (fold)” value on human recombinant HDAC6 is 130 fold.

With `CCCCN(C(=O)N1C[C@@H](C)N(Cc2ccc(C(=O)NO)cc2)[C@@H](C)C1)c1ccccc1` [Compound 198, (3R,5S)-N-butyl-4-(4-(hydroxycarbamoyl)benzyl)-3,5-dimethyl-N-phenylpiperazine-1-carboxamide], the values for the 50% inhibitory concentration (IC50) at human recombinant HDAC1 and at human recombinant HDAC6 were 12200 nM and 241 nM, respectively. Besides, at human recombinant HDAC6, the “HDAC6 selectivity (fold)” value is reported as 51 fold.

On to `C[C@@H]1CN(Cc2ccc(C(=O)NO)nc2)C[C@H](C)N1Cc1cccc(CN2CCOCC2)c1` [Compound 609, 5-(((3R,5S)-3,5-dimethyl-4-(3-(morpholinomethyl)benzyl)piperazin-1-yl)methyl)-N-hydroxypicolinamide], for which, at human recombinant HDAC1, the half-inhibitory concentration (IC50) was more than 10000 nM. In addition, at human recombinant HDAC6, the “HDAC6 selectivity (fold)” value is listed as more than 13.3 fold and the IC50 was determined as 754 nM.

With `C[C@@H]1CN(Cc2ccc(C(=O)NO)cc2)C[C@H](C)N1C(=O)c1cccc(CN2CCN(CC(F)(F)F)CC2)c1` [Compound 443, 4-(((3R,5S)-3,5-dimethyl-4-(3-((4-(2,2,2-trifluoroethyl)piperazin-1-yl)methyl)benzoyl)piperazin-1-yl)methyl)-N-hydroxybenzamide], the IC50 on human recombinant HDAC1 was determined as 9600 nM; at human recombinant HDAC6 it was 141 nM. Moreover, the “HDAC6 selectivity (fold)” value on human recombinant HDAC6 is reported as 68 fold.

Regarding `C[C@@H]1CN(C(=O)c2ccco2)C[C@H](C)N1Cc1ccc(C(=O)NO)cc1` [Compound 115, 4-(((2S,6R)-4-(furan-2-carbonyl)-2,6-dimethylpiperazin-1-yl)methyl)-N-hydroxybenzamide], the IC50 at human recombinant HDAC1 was 3200 nM; at human recombinant HDAC6 it was 181 nM. Besides, the “HDAC6 selectivity (fold)” value at human recombinant HDAC6 was 18 fold.
